This is an account of results in US11840528B2 (Hoffmann-La Roche Inc., priority 2018, dated 2023).

For experiment [1], the target named is T1, h-GABA-A α5β3γ2 (Homo sapiens, UniProt P18507+P31644). Kind of experiment: Two-electrode voltage clamp electrophysiology in Xenopus laevis oocytes expressing GABAA receptors, modulation of GABA EC20 current. It counts as cell-based. Further details: host or cells: Xenopus laevis oocytes micro-injected with RNA transcripts of the subunits. The following applies: Table 1; for Efficacy (GABA) %: % modulation of GABA EC20 = 100*(Fold increase-1); for Fold increase h-GABA-A α5β3γ2 oocyte: test compound at approx. 30 fold its Ki, GABA at EC20. Summed up: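 Human α5β3γ2 GABAA receptors were expressed in Xenopus oocytes by RNA injection, with γ2 RNA 5–10-fold higher, and recorded 3–5 days later by two-electrode voltage clamp at −80 mV at room temperature. The test compound, at about 30× its Ki, was co-applied during a second GABA EC20 pulse. Efficacy is the extremum of the point-by-point ratio to the first response, expressed as 100*(Fold increase−1).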
On the technique in general: In two-electrode clamp one electrode senses voltage and the other passes current.

Experiment [2] deals with T1, h-GABA-A α5β3γ2. Kind of experiment: [3H]flumazenil competition binding assay, membranes of HEK293 cells expressing GABAA receptors. The following applies: displacement of [3H]-Flumazenil 0.5 nM, HEK293 cells expressing human receptors, mean of two determinations; Table 1. Summed up:
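Membranes from HEK293 cells transiently expressing human α5β3γ2 GABAA receptors, in Krebs-tris buffer pH 7.5, competed against [3H]flumazenil for 1 hour at 4° C to equilibrium. Bound radioactivity collected on GF/C filters and counted by liquid scintillation; Ki values are means of two determinations.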
Background: In a radioligand displacement assay an active substance lowers the binding of a labelled ligand.

Consider `Cc1ccc(-c2noc(C)c2Cn2ncc(N3CC(Oc4cccnc4)C3)cc2=O)cn1` [Example 126, 2-[[5-methyl-3-(6-methyl-3-pyridyl)isoxazol-4-yl]methyl]-5-[3-(3-pyridyloxy)azetidin-1-yl]pyridazin-3-one], for which, at h-GABA-A α5β3γ2 [1], the “Efficacy (GABA) %” value was found to be 134% and the “Fold increase h-GABA-A α5β3γ2 oocyte” value is reported as 2.34. The same molecule registered a Ki on h-GABA-A α5β3γ2 [2] of 9.4 nM.
In the case of `Cc1ccc(-c2noc(C)c2Cn2ncc(N(C)C)cc2=O)cn1` [Example 45, 5-(dimethylamino)-2-((5-methyl-3-(6-methylpyridin-3-yl)isoxazol-4-yl)methyl)pyridazin-3(2H)-one], on h-GABA-A α5β3γ2 [1], the “Efficacy (GABA) %” value worked out at 103% and the “Fold increase h-GABA-A α5β3γ2 oocyte” value was 2.03. The inhibition constant (Ki) at h-GABA-A α5β3γ2 [2] came out at 6.6 nM.
The matching figures for `Cc1ccc(-c2noc(C)c2Cn2ncc(N3CC4(CCC(C(F)(F)F)CO4)C3)cc2=O)nn1` (single isomer, unassigned) [Example 321]: 129%, 2.29 and 6.3 nM.
For `Cc1ccc(-c2nocc2Cn2ncc(N3C[C@@H](C)O[C@@H](C)C3)cc2=O)cn1` [Example 32, 5-(cis-2,6-dimethylmorpholin-4-yl)-2-[[3-(6-methyl-3-pyridyl)isoxazol-4-yl]methyl]pyridazin-3-one], at h-GABA-A α5β3γ2 [1], the “Efficacy (GABA) %” value was found to be 288% and the “Fold increase h-GABA-A α5β3γ2 oocyte” value was 3.88. At h-GABA-A α5β3γ2 [2], this molecule yielded an inhibitory constant (Ki) of 12.7 nM.
As for `Cc1ccc(-c2nocc2Cn2ncc(N3CCO[C@H](C)C3)cc2=O)cn1` [Example 92, 5-[(2R)-2-methylmorpholin-4-yl]-2-[[3-(6-methyl-3-pyridyl)isoxazol-4-yl]methyl]pyridazin-3-one], on h-GABA-A α5β3γ2 [1], the “Efficacy (GABA) %” value was determined as 167% and the “Fold increase h-GABA-A α5β3γ2 oocyte” value was 2.67. At h-GABA-A α5β3γ2 [2], the Ki was 25.6 nM.
As to `Cc1ccc(-c2noc(C)c2Cn2ncc(-c3ccnc(N4CCNCC4)c3)cc2=O)cn1` [Example 163, 2-((5-methyl-3-(6-methylpyridin-3-yl)isoxazol-4-yl)methyl)-5-(2-(piperazin-1-yl)pyridin-4-yl)pyridazin-3(2H)-one], at h-GABA-A α5β3γ2 [1], the “Efficacy (GABA) %” value amounted to 165% and the “Fold increase h-GABA-A α5β3γ2 oocyte” value amounted to 2.65. Also, the Ki at h-GABA-A α5β3γ2 [2] was found to be 11.4 nM.
Consider `CO[C@H]1CN(c2cnn(Cc3c(-c4ccc(Cl)nc4)noc3C)c(=O)c2)[C@H]1C` [Example 286, 2-((3-(6-chloropyridin-3-yl)-5-methylisoxazol-4-yl)methyl)-5-((2S,3S)-3-methoxy-2-methylazetidin-1-yl)pyridazin-3(2H)-one], for which, on h-GABA-A α5β3γ2 [1], the “Efficacy (GABA) %” value stood at 112% and the “Fold increase h-GABA-A α5β3γ2 oocyte” value was determined as 2.12. Also, the inhibitory constant (Ki) at h-GABA-A α5β3γ2 [2] amounted to 3.3 nM.
As for `Cc1ccc(-c2noc(C)c2Cn2ncc(N3CC4(C[C@H](OC(F)F)CO4)C3)cc2=O)nn1` [Example 246, 5-[(7S)-7-(difluoromethoxy)-5-oxa-2-azaspiro[3.4]octan-2-yl]-2-[[5-methyl-3-(6-methylpyridazin-3-yl)isoxazol-4-yl]methyl]pyridazin-3-one], at h-GABA-A α5β3γ2 [1], the “Efficacy (GABA) %” value worked out at 130% and the “Fold increase h-GABA-A α5β3γ2 oocyte” value is recorded as 2.3. The molecule further displayed a Ki on h-GABA-A α5β3γ2 [2] of 3.4 nM.
On to `Cc1ccc(-c2noc(C)c2Cn2ncc(N3CC4(CCC(C)(C)O4)C3)cc2=O)nn1` [Example 310, 5-(6,6-dimethyl-5-oxa-2-azaspiro[3.4]octan-2-yl)-2-[[5-methyl-3-(6-methylpyridazin-3-yl)isoxazol-4-yl]methyl]pyridazin-3-one], for which, at h-GABA-A α5β3γ2 [1], the “Efficacy (GABA) %” value is 105% and the “Fold increase h-GABA-A α5β3γ2 oocyte” value came to 2.05. This molecule showed an inhibitory constant (Ki) on h-GABA-A α5β3γ2 [2] of 14.2 nM.
As for `Cc1onc(-c2ccc(C(F)(F)F)nc2)c1Cn1ncc(N2CC(OCC(F)F)C2)cc1=O` [Example 244, 5-[3-(2,2-difluoroethoxy)azetidin-1-yl]-2-[[5-methyl-3-[6-(trifluoromethyl)-3-pyridyl]isoxazol-4-yl]methyl]pyridazin-3-one], at h-GABA-A α5β3γ2 [1], the “Efficacy (GABA) %” value is 140% and the “Fold increase h-GABA-A α5β3γ2 oocyte” value was 2.4. Further, the affinity on h-GABA-A α5β3γ2 [2], expressed as Ki, was 38.8 nM.
Take `Cc1onc(-c2ccc(F)cc2)c1Cn1ncc(N2CCC(n3c(C)nnc3C)CC2)cc1=O` [Example 55, 5-(4-(3,5-Dimethyl-4H-1,2,4-triazol-4-yl)piperidin-1-yl)-2-((3-(4-fluorophenyl)-5-methylisoxazol-4-yl)methyl)pyridazin-3(2H)-one]: at h-GABA-A α5β3γ2 [1], the “Efficacy (GABA) %” value came out at 85% and the “Fold increase h-GABA-A α5β3γ2 oocyte” value was found to be 1.85. Further, the affinity on h-GABA-A α5β3γ2 [2], expressed as Ki, was 43.4 nM.
On to `Cc1ccc(-c2noc(C)c2Cn2ncc(N3CC4(C[C@H](OC(F)F)CO4)C3)cc2=O)cn1` [Example 204, 5-[(7S)-7-(difluoromethoxy)-5-oxa-2-azaspiro[3.4]octan-2-yl]-2-[[5-methyl-3-(6-methyl-3-pyridyl)isoxazol-4-yl]methyl]pyridazin-3-one], for which, on h-GABA-A α5β3γ2 [1], the “Efficacy (GABA) %” value amounted to 160% and the “Fold increase h-GABA-A α5β3γ2 oocyte” value turned out to be 2.6. For the same molecule, on h-GABA-A α5β3γ2 [2], the affinity corresponds to a Ki of 15.1 nM.
As to `CCOC1CN(c2cnn(Cc3c(-c4ccc(Cl)nc4)noc3C)c(=O)c2)C1` [Example 220, 2-((3-(6-chloropyridin-3-yl)-5-methyl-1,2-oxazol-4-yl)methyl)-5-(3-ethoxyazetidin-1-yl)pyridazin-3-one], at h-GABA-A α5β3γ2 [1], the “Efficacy (GABA) %” value came out at 118% and the “Fold increase h-GABA-A α5β3γ2 oocyte” value is 2.18. For the same molecule, the Ki at h-GABA-A α5β3γ2 [2] stood at 25.3 nM.
In the case of `Cc1onc(-c2ccc(Cl)nc2)c1Cn1ncc(N2CC(OCC(F)(F)F)C2)cc1=O` [Example 254, 2-((3-(6-chloropyridin-3-yl)-5-methylisoxazol-4-yl)methyl)-5-(3-(2,2,2-trifluoroethoxy)azetidin-1-yl)pyridazin-3(2H)-one], on h-GABA-A α5β3γ2 [1], the “Efficacy (GABA) %” value amounted to 147% and the “Fold increase h-GABA-A α5β3γ2 oocyte” value came out at 2.47. At h-GABA-A α5β3γ2 [2], this molecule came in with an inhibition constant Ki of 27.6 nM.
With `Cc1ccc(-c2noc(C)c2Cn2ncc(-c3cnn(C4CC4)c3)cc2=O)cn1` [Example 152, 5-(1-cyclopropyl-1H-pyrazol-4-yl)-2-((5-methyl-3-(6-methylpyridin-3-yl)isoxazol-4-yl)methyl)pyridazin-3(2H)-one], on h-GABA-A α5β3γ2 [1], the “Efficacy (GABA) %” value came out at 116% and the “Fold increase h-GABA-A α5β3γ2 oocyte” value was found to be 2.16. The Ki at h-GABA-A α5β3γ2 [2] was 28.7 nM.
On to `Cc1ccc(-c2noc(C)c2Cn2ncc(N3CC(OC(C)(C)C)C3)cc2=O)cn1` [Example 150, 5-(3-tert-butoxyazetidin-1-yl)-2-[[5-methyl-3-(6-methyl-3-pyridyl)isoxazol-4-yl]methyl]pyridazin-3-one], for which, at h-GABA-A α5β3γ2 [1], the “Efficacy (GABA) %” value was determined as 85% and the “Fold increase h-GABA-A α5β3γ2 oocyte” value was 1.85. Moreover, the Ki at h-GABA-A α5β3γ2 [2] was found to be 30.4 nM.
Take `Cc1ccc(-c2noc(C)c2Cn2ncc(-c3ccc(C4CC4)nc3)cc2=O)cn1` [Example 173, 5-(6-cyclopropyl-3-pyridyl)-2-[[5-methyl-3-(6-methyl-3-pyridyl)isoxazol-4-yl]methyl]pyridazin-3-one]: on h-GABA-A α5β3γ2 [1], the “Efficacy (GABA) %” value came to 80% and the “Fold increase h-GABA-A α5β3γ2 oocyte” value was 1.8. This molecule also yielded an inhibition constant Ki on h-GABA-A α5β3γ2 [2] of 29.7 nM.
Take `Cc1ccc(-c2noc(C)c2Cn2ncc(N3CC4(CCCCCO4)C3)cc2=O)nn1` [Example 316, 2-[[5-methyl-3-(6-methylpyridazin-3-yl)isoxazol-4-yl]methyl]-5-(5-oxa-2-azaspiro[3.6]decan-2-yl)pyridazin-3-one]: on h-GABA-A α5β3γ2 [1], the “Efficacy (GABA) %” value turned out to be 100% and the “Fold increase h-GABA-A α5β3γ2 oocyte” value is reported as 2. At h-GABA-A α5β3γ2 [2], this molecule came in with an inhibitory constant (Ki) of 4.3 nM.
For `COc1cc(-c2cnn(Cc3c(-c4ccc(C)nc4)noc3C)c(=O)c2)ccn1` [Example 107, 5-(2-methoxypyridin-4-yl)-2-((5-methyl-3-(6-methylpyridin-3-yl)isoxazol-4-yl)methyl)pyridazin-3(2H)-one], on h-GABA-A α5β3γ2 [1], the “Efficacy (GABA) %” value was 70% and the “Fold increase h-GABA-A α5β3γ2 oocyte” value is given as 1.7. On h-GABA-A α5β3γ2 [2], this molecule had a Ki of 3.8 nM.
`Cc1ccc(-c2noc(C)c2Cn2ncc(-c3ccc(F)cc3)cc2=O)cn1` [Example 68, 5-(4-fluorophenyl)-2-[[5-methyl-3-(6-methylpyridin-3-yl)-1,2-oxazol-4-yl]methyl]pyridazin-3-one]: on h-GABA-A α5β3γ2 [1], the “Efficacy (GABA) %” value came out at 71% and the “Fold increase h-GABA-A α5β3γ2 oocyte” value was 1.71. The same molecule came in with a Ki at h-GABA-A α5β3γ2 [2] of 11.9 nM.
The matching figures for `Cc1ccc(-c2noc(C)c2Cn2ncc(-c3cnn(C(F)F)c3)cc2=O)cn1` [Example 154, 5-(1-(difluoromethyl)-1H-pyrazol-4-yl)-2-((5-methyl-3-(6-methylpyridin-3-yl)isoxazol-4-yl)methyl)pyridazin-3(2H)-one]: 244%, 3.44 and 23.7 nM.
Consider `Cc1ccc(-c2noc(C)c2Cn2ncc(N3CCNCC3)cc2=O)cn1` [Example 75, 2-[[5-methyl-3-(6-methyl-3-pyridyl)isoxazol-4-yl]methyl]-5-piperazin-1-yl-pyridazin-3-one], for which, on h-GABA-A α5β3γ2 [1], the “Efficacy (GABA) %” value came to 104% and the “Fold increase h-GABA-A α5β3γ2 oocyte” value came out at 2.04. On h-GABA-A α5β3γ2 [2], this molecule had an inhibition constant (Ki) of 3.6 nM.
For `CCc1onc(-c2ccc(C)nn2)c1Cn1ncc(N2CC3(CCC(F)CO3)C2)cc1=O` (single isomer, unassigned) [Example 325], on h-GABA-A α5β3γ2 [1], the “Efficacy (GABA) %” value was 178% and the “Fold increase h-GABA-A α5β3γ2 oocyte” value worked out at 2.78. The same molecule returned an inhibition constant (Ki) on h-GABA-A α5β3γ2 [2] of 3.2 nM.

One may read the Ki as the equilibrium dissociation constant of an inhibitor or competing ligand from its target. Read a high Ki as a looser hold on the target.
